Drawing on the supplement of paper PMC10307832, this text covers relative viability for 7 cell lines.

Assay in all cases: relative viability (nuclei count vs DMSO), 5 days (fraction); higher = more cells survive
Compound in test [1]: O=C(CCCCCCNC(=O)c1cnc(N(c2ccccc2)c2ccccc2)nc1)NO [Ricolinostat] + Nc1ncn([C@H]2C[C@H](O)[C@@H](CO)O2)c(=O)n1 [Decitabine] (partner 2 µM)
In short, it runs like this:
(§1)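 Lung cancer cell lines were pin-tool dosed in 1536-well plates on the day after seeding, with either a lone drug or a fixed anchor-drug dose plus five library-drug doses (not always all listed) in √10 steps. Nuclei were counted on 4× images after 5 days. Relative viability is the ratio of treated-well to vehicle-well nuclei counts, with each value a median of duplicate plates.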

Compound in test [2]: C1=CC=C(C(=C1)C2=CC=C(C=C2)C3=CSC4=C3C(=C(C(=O)N4)C#N)O)O + O=C(c1cc(Cc2n[nH]c(=O)c3ccccc23)ccc1F)N1CCN(C(=O)C2CC2)CC1 [Olaparib] (partner 8 µM)
In short, it runs like this:
as §1

Compound in the test “TGX 221 + Foretinib”: CC1=CN2C(=O)C=C(N=C2C(=C1)C(C)NC3=CC=CC=C3)N4CCOCC4 [TGX 221] + COc1cc2c(Oc3ccc(NC(=O)C4(C(=O)Nc5ccc(F)cc5)CC4)cc3F)ccnc2cc1OCCCN1CCOCC1 [Foretinib] (partner 0.25 µM)
In short, it runs like this: as §1

Compound in the test “TGX 221 + Palbociclib”: CC1=CN2C(=O)C=C(N=C2C(=C1)C(C)NC3=CC=CC=C3)N4CCOCC4 [TGX 221] + CC(=O)c1c(C)c2cnc(Nc3ccc(N4CCNCC4)cn3)nc2n(C2CCCC2)c1=O [Palbociclib] (partner 0.5 µM)
In short, it runs like this: as §1

Turning to HCC-78, the relative viability in test [1] (first compound 0.253 µM) came out at 0.7; in test [1] (first compound 0.8 µM), 0.602; in test [1] (first compound 2.53 µM) it was 0.585; in test [2] (first compound 0.08 µM) it was 0.815; in test [2] (first compound 0.253 µM), 1.4; in test [2] (first compound 0.8 µM), 0.91. Also, the relative viability in test [2] (first compound 2.53 µM) was determined as 0.787; in test [2] (first compound 8 µM), 0.711; in the test with TGX 221 + Foretinib (first compound 0.08 µM), 0.581; in the test with TGX 221 + Foretinib (first compound 0.253 µM), 0.551; with TGX 221 + Foretinib (first compound 0.8 µM) it was 0.586; with TGX 221 + Foretinib (first compound 2.53 µM), 0.478. Further, the relative viability with TGX 221 + Foretinib (first compound 8 µM) turned out to be 0.502; with TGX 221 + Palbociclib (first compound 0.253 µM), 0.428; in the test with TGX 221 + Palbociclib (first compound 0.8 µM), 0.464; with TGX 221 + Palbociclib (first compound 2.53 µM), 0.397; with TGX 221 + Palbociclib (first compound 8 µM), 0.435.
In the case of NCI-H1395, the relative viability in test [1] (first compound 0.253 µM) is 0.731; in test [1] (first compound 0.8 µM), 0.652; in test [1] (first compound 2.53 µM), 0.663; in test [2] (first compound 0.253 µM), 0.469; in test [2] (first compound 0.8 µM) it was 0.479; in test [2] (first compound 2.53 µM), 0.458. The relative viability came to 0.446 in test [2] (first compound 8 µM); 0.903 with TGX 221 + Foretinib (first compound 0.08 µM); 0.961 with TGX 221 + Foretinib (first compound 0.253 µM); 0.873 in the test with TGX 221 + Foretinib (first compound 0.8 µM); 0.716 in the test with TGX 221 + Foretinib (first compound 2.53 µM); 0.628 in the test with TGX 221 + Foretinib (first compound 8 µM). In addition, the relative viability turned out to be 0.609 with TGX 221 + Palbociclib (first compound 0.08 µM); 0.537 with TGX 221 + Palbociclib (first compound 0.253 µM); 0.51 in the test with TGX 221 + Palbociclib (first compound 0.8 µM); 0.467 in the test with TGX 221 + Palbociclib (first compound 2.53 µM); 0.487 with TGX 221 + Palbociclib (first compound 8 µM).
On to NCI-H2009, for which the relative viability came to 0.376 in test [1] (first compound 0.08 µM); 0.353 in test [1] (first compound 0.253 µM); 0.35 in test [1] (first compound 0.8 µM); 0.373 in test [1] (first compound 2.53 µM); 0.649 in test [2] (first compound 0.08 µM); 0.668 in test [2] (first compound 0.253 µM). Besides, the relative viability came out at 0.924 in test [2] (first compound 0.8 µM); 0.591 in test [2] (first compound 2.53 µM); 0.714 in test [2] (first compound 8 µM); 1.12 in the test with TGX 221 + Foretinib (first compound 0.08 µM); 1.14 with TGX 221 + Foretinib (first compound 0.253 µM); 1.25 with TGX 221 + Foretinib (first compound 0.8 µM). Besides, the relative viability with TGX 221 + Foretinib (first compound 2.53 µM) is 1.14; in the test with TGX 221 + Foretinib (first compound 8 µM), 0.789; in the test with TGX 221 + Palbociclib (first compound 0.08 µM), 0.216; in the test with TGX 221 + Palbociclib (first compound 0.253 µM), 0.191; with TGX 221 + Palbociclib (first compound 0.8 µM), 0.118; in the test with TGX 221 + Palbociclib (first compound 2.53 µM), 0.175. For the same cell line, the relative viability in the test with TGX 221 + Palbociclib (first compound 8 µM) worked out at 0.166.
For LXF-289, the relative viability in test [1] (first compound 0.08 µM) was found to be 0.407; in test [1] (first compound 0.253 µM), 0.366; in test [1] (first compound 0.8 µM) it was 0.384; in test [1] (first compound 2.53 µM), 0.347; in test [2] (first compound 0.08 µM) it was 1.1; in test [2] (first compound 0.253 µM), 1.24. Further, the relative viability in test [2] (first compound 0.8 µM) worked out at 0.958; in test [2] (first compound 2.53 µM), 1.01; in test [2] (first compound 8 µM), 1.02; with TGX 221 + Foretinib (first compound 0.08 µM), 0.974; with TGX 221 + Foretinib (first compound 0.253 µM), 0.986; in the test with TGX 221 + Foretinib (first compound 0.8 µM), 1. Further, the relative viability with TGX 221 + Foretinib (first compound 2.53 µM) came to 0.97; in the test with TGX 221 + Foretinib (first compound 8 µM), 0.995; in the test with TGX 221 + Palbociclib (first compound 0.08 µM) it was 0.595; in the test with TGX 221 + Palbociclib (first compound 0.253 µM) it was 0.628; in the test with TGX 221 + Palbociclib (first compound 0.8 µM), 0.612; with TGX 221 + Palbociclib (first compound 2.53 µM) it was 0.641. In addition, the relative viability in the test with TGX 221 + Palbociclib (first compound 8 µM) stood at 0.568.
As to NCI-H1975, the relative viability in test [1] (first compound 0.08 µM) is 0.371; in test [1] (first compound 0.253 µM), 0.394; in test [1] (first compound 0.8 µM), 0.382; in test [1] (first compound 2.53 µM), 0.379; in test [2] (first compound 0.08 µM), 0.692; in test [2] (first compound 0.253 µM), 0.901. The relative viability was 0.796 in test [2] (first compound 0.8 µM); 0.893 in test [2] (first compound 2.53 µM); 0.535 in test [2] (first compound 8 µM); 0.862 in the test with TGX 221 + Foretinib (first compound 0.08 µM); 0.899 with TGX 221 + Foretinib (first compound 0.253 µM); 0.965 in the test with TGX 221 + Foretinib (first compound 0.8 µM). The relative viability with TGX 221 + Foretinib (first compound 2.53 µM) came to 0.841; with TGX 221 + Foretinib (first compound 8 µM), 0.797; with TGX 221 + Palbociclib (first compound 0.08 µM), 0.532; with TGX 221 + Palbociclib (first compound 0.253 µM), 0.558; with TGX 221 + Palbociclib (first compound 0.8 µM) it was 0.629; with TGX 221 + Palbociclib (first compound 2.53 µM), 0.452. The relative viability in the test with TGX 221 + Palbociclib (first compound 8 µM) was found to be 0.526.
As for NCI-H2347, the relative viability stood at 0.626 in test [1] (first compound 0.08 µM); 0.664 in test [1] (first compound 0.253 µM); 0.585 in test [1] (first compound 0.8 µM); 0.61 in test [1] (first compound 2.53 µM); 0.645 in test [2] (first compound 0.08 µM); 0.632 in test [2] (first compound 0.253 µM). In addition, the relative viability stood at 0.569 in test [2] (first compound 0.8 µM); 0.634 in test [2] (first compound 2.53 µM); 0.579 in test [2] (first compound 8 µM); 0.879 in the test with TGX 221 + Foretinib (first compound 0.253 µM); 0.769 in the test with TGX 221 + Foretinib (first compound 0.8 µM); 0.622 with TGX 221 + Foretinib (first compound 2.53 µM). Further, the relative viability in the test with TGX 221 + Foretinib (first compound 8 µM) came out at 0.49; in the test with TGX 221 + Palbociclib (first compound 0.08 µM), 0.423; with TGX 221 + Palbociclib (first compound 0.253 µM) it was 0.427; with TGX 221 + Palbociclib (first compound 0.8 µM), 0.465; with TGX 221 + Palbociclib (first compound 2.53 µM), 0.391; with TGX 221 + Palbociclib (first compound 8 µM), 0.415.
As for RERF-LC-KJ, the relative viability in test [1] (first compound 0.08 µM) worked out at 0.77; in test [1] (first compound 0.253 µM), 0.609; in test [1] (first compound 0.8 µM), 0.672; in test [1] (first compound 2.53 µM) it was 0.618; in test [2] (first compound 0.08 µM), 0.956; in test [2] (first compound 0.253 µM), 1.03. Further, the relative viability was found to be 0.963 in test [2] (first compound 0.8 µM); 1.02 in test [2] (first compound 2.53 µM); 0.8 in test [2] (first compound 8 µM); 0.87 with TGX 221 + Foretinib (first compound 0.08 µM); 0.879 with TGX 221 + Foretinib (first compound 0.253 µM); 0.964 in the test with TGX 221 + Foretinib (first compound 0.8 µM). Also, the relative viability amounted to 0.825 with TGX 221 + Foretinib (first compound 2.53 µM); 0.757 with TGX 221 + Foretinib (first compound 8 µM); 1.06 with TGX 221 + Palbociclib (first compound 0.08 µM); 0.979 in the test with TGX 221 + Palbociclib (first compound 0.253 µM); 1.09 with TGX 221 + Palbociclib (first compound 0.8 µM); 0.905 with TGX 221 + Palbociclib (first compound 2.53 µM). Also, the relative viability in the test with TGX 221 + Palbociclib (first compound 8 µM) came to 0.914.
